According to patent US5776932A, “1,3,5-tribsubstituted indazole derivatives, processes for preparing, and for pharmacological treatment therewith” (Arzneimittelwerk Dresden G.m.b.H., priority 1996, dated 1998):

Columns and labels:
[1] = biological target: T1, arachidonate-5-lipoxygenase (Rattus norvegicus, UniProt P12527); assay: Inhibition of 5-lipoxygenase in prepared macrophages from Wistar rats; type: cell-based; details: quadruple determinations, mean IC50, read-out: IC50 (50% inhibition of 5-lipoxygenase)
T1 construct: using prepared macrophages from Wistar rats; endogenous in cells; host or cells: prepared macrophages from Wistar rats
T1 sequence (P12527 1-673): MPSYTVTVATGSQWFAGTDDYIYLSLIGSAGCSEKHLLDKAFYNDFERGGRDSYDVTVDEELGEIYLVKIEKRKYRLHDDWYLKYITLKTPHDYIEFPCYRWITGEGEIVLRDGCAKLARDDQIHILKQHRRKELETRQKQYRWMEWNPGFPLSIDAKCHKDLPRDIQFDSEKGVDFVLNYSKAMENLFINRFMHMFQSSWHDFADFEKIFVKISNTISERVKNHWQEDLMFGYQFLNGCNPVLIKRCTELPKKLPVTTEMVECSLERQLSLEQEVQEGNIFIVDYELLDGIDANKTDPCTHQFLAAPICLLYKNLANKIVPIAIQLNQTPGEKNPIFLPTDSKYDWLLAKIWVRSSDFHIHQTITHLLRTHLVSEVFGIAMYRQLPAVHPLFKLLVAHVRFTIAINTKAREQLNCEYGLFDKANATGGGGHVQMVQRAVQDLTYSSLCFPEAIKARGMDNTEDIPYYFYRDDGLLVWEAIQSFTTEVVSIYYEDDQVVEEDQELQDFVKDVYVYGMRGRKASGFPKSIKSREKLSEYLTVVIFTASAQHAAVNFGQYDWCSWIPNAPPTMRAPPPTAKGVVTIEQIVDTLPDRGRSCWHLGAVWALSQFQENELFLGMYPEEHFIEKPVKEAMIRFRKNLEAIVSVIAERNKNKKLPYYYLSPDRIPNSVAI
Source text: Murphy, R. C. and Matthews, W. R., Purification and Characterization of Leukotrienes from Mastocytoma Cells, Methods in Enzymology, 86, pp. 409-416.
Argentiere, D. D., Ritchie, D. M. et al., Tepoxalin: A Dual Cyclooxygenase/5-Lipoxygenase Inhibitor of Arachidonic Acid Metabolism with Potent Anti-inflammatory Activity and a Favorable Gastrointestinal Profile, The Journal of Pharmacology and Experimental Therapeutics, Vol. 271, No. 3, 1399-1408, 1994.
Carter, G. W., Young, P. R. et al., 5-Lipoxygenase Inhibitory activity of Zileuton, The Journal of Pharmacology and Experimental Therapeutics, Vol. 256, No. 3, 1991.
The experiments were all conducted as quadruple determinations, by combining four partial experiments in each case were combined to determine the mean IC50 value.

[2] = tested on: tracheal segments from actively sensitized guinea-pigs; assay: Inhibition of the antigen (ovalbumin)-induced contraction of isolated tracheal segments from actively sensitized guinea-pigs; design: species or system guinea-pig; details: Cavia porcellus, under mepyramine and indomethacin protection, read-out: maximum inhibition (ovalbumin-induced contraction)
Procedure: For this purpose, isolated tracheal segments from guinea-pigs actively sensitized against ovalbumin by the s.c. administration of 10 μg of ovalbumin with 1 mg of aluminum hydroxide adjuvant, three weeks before removal of the organ, and a booster dose of the same amount of ovalbumin and aluminum hydroxide s.c. one week before removal of the organ. The segments were placed in organ baths filled with a nutrient solution aerated with carbogen which is a mixture of 95% oxygen and 5% carbon dioxide, and kept at 37° C., and were connected to isometric force transducers. After preincubation with mepyramine to eliminate histamine, and indomethacin for the inhibition of cyclooxygenase, 5×10^-7 mol/l carbachol (carbamylcholine chloride) was added and a contraction was induced. 10 μg/ml ovalbumin as an allergen was then added to the bath liquid and the maximum contraction of the tracheal segments which was thereby induced was correlated with the effect of the carbachol as control (=100%). The test substances were added to the organ bath 30 minutes before the allergen-induced contraction. Table 2 below indicates the IC50 values, i.e. the concentrations which cause a 50% inhibition of the contraction of isolated tracheal segments from the guinea-pig. The IC50 values were determined by testing 3-4 concentrations on 4-8 organs in each case.

late phase eosinophilia = assay: Inhibition of late phase eosinophilia 24 hours after the inhalational ovalbumin challenge on actively sensitized guinea-pigs; type: in vivo; details: -2 h; for EOS, B (eosinophils in the group treated with the substance, with challenge): x ± s
Source text: Eosinophilic granulocytes play an important part in the transition of allergic diseases, e.g. bronchial asthma, to the chronic stage. Thus the bronchoalveolar lavage fluid (BAL) contains an increased number of eosinophils a few hours after an allergen-induced asthmatic attack. Eosinophils are expected to play an important part in cell damage since they contain histotoxic proteins, like major basic protein (MBP) and eosinophil cation protein (ECP), in their granula. It is also assumed that substances which prevent the infiltration of eosinophils have a therapeutic action against allergic diseases like bronchial asthma.
The inhibition of eosinophil infiltration by the substances was tested in vivo on guinea-pigs actively sensitized against ovalbumin by the substantenous administration of 10 μg of OA, with 1 μg of aluminum hydroxide adjuvant, three weeks before the beginning of the experiment, and a booster dose containing the same amount of OA and aluminum hydroxide was administrated substantaneously one week before the beginning of the experiment. Three weeks after the first sensitization, the animals were placed in a plastic box and exposed to an aerosol of 0.5% OA dissolved in a physiological saline solution. The nebulization time was 20-30 seconds. After 24 hours the animals were intraperitoneally anaesthetized with 1.5 g/kg body weight ethylurethane and a bronchioalveolar lavage was performed with 2×5 ml of physiological saline solution. The lavage fluid was collected and centrifuged at 400 G for 10 minutes and the cell pellet was then resuspended in 1 ml of physiological saline solution. The eosinophils were microscopically counted in a Neubauer chamber after staining using the No. 5877 Becton-Dickinson test kit for eosinophilia. The number of eosinophils was indicated in millions per animal. Each test was also carried out with two control groups with and without antigen challenge.
The percentage inhibition of the eosinophilia in the experimental groups treated with the substance is calculated by the following formula:
(A-C)-(B-C)/(A-C)×100=% inhibition
The test substances were administered orally or intraperitoneally as a triturate in 0.5% 5-hydroxyethylcellulose two hours before the antigen challenge.

[3] = tested on: SRS-A bronchoconstriction in guinea-pigs sensitized with ovalbumin; assay: SRS-A bronchoconstriction in anaesthetized, ovalbumin-sensitized guinea-pigs after inhalation of antigen; type: in vivo; details: -2 hrs, 1% OA, 20 inspirations
Procedure: For this purpose, guinea-pigs are actively sensitized against ovalbumin (OA) with 20 μg OA+20 mg Al(OH)3 in 0.5 ml, administered intraperitoneally (i.p.) and a booster dose of the same is administered 14 days later. One week after the booster dose, the animals are i.p. anaesthetized with urethane and connected to an apparatus (Mumed Physiological Recorder 800) for the determination of pulmonary function parameters. The animals are pretreated with mepyramine to antagonize the histamine, with indomethacin to inhibit the formation of prostaglandins, and with propanolol to eliminate β-adrenergic mechanisms. If an allergic reaction is induced after this treatment, the associated bronchospam is extensively attributable to the effect of leukotrienes.
Before the experiment the test substances were administered orally two hours before the challenge. After an equilibration period an asthmatic challenge attack is induced by the nebulization of a 1% ovalbumin solution over 20 inspirations.
The drop in dynamic compliance is used as a suitable and well reproducible parameter for characterizing the action of leukotrienes. Under control conditions, after pretreatment and ovalbumin challenge, guinea-pigs react with a slow drop in compliance of c. 30-40% over 15 minutes.

Molecule | IC50 [1] [µM] | other results
1-(2,4-dimethylbenzyl)-5-methoxy-1H-indazole-3-ol [Example 18] | 0.977 | –
COc1ccc2c(c1)c(O)nn2Cc1ccc(OCc2ccccc2)cc1 [Example 1, 1-(4-benzyloxybenzyl)-5-methoxy-1H-indazole-3-ol] | 0.171 | inhibition at 1 µM ([2]; at 1.0 μmol/l): 36%; % inhibition (eosinophilia) (late phase eosinophilia; 1 mg/kg i.p.): 48.7%; EOS, B (eosinophils in the group treated with the substance, with challenge) (late phase eosinophilia; 1 mg/kg i.p.): 3.3 ± 1.6 mill./animal; % inhibition (eosinophilia) (late phase eosinophilia; 30 mg/kg p.o.): 36.0%; EOS, B (eosinophils in the group treated with the substance, with challenge) (late phase eosinophilia; 30 mg/kg p.o.): 3.7 ± 1.7 mill./animal
COc1ccc2c(c1)c(O)nn2Cc1ccc(Cl)cc1 [Example 2, 1-(4-chlorobenzyl)-5-methoxy-1H-indazole-3-ol] | 0.4 | –
COc1ccc2c(c1)c(O)nn2Cc1cccc(Cl)c1 [Example 3, 1-(3-chlorobenzyl)-5-methoxy-1H-indazole-3-ol] | 0.47 | –
COc1ccc2c(c1)c(O)nn2Cc1ccccc1Cl [Example 4, 1-(2-chlorobenzyl)-5-methoxy-1H-indazole-3-ol] | 0.71 | –
COc1ccc2c(c1)c(O)nn2Cc1ccc(Cl)c(Cl)c1 [Example 6, 1-(3,4-dichlorobenzyl)-5-methoxy-1H-indazole-3-ol] | 0.41 | inhibition at 3 µM ([2]; at 3.0 μmol/l): 40%; % drop in dyn. compliance ([3]; 5.0 mg/kg oral): 25 ± 9.9%; % inhibition ([3]; 5.0 mg/kg oral): 38%; % drop in dyn. compliance ([3]; 10.0 mg/kg oral): 7.0 ± 2.7%; % inhibition ([3]; 10.0 mg/kg oral): 83%; % inhibition (eosinophilia) (late phase eosinophilia; 1 mg/kg i.p.): 58.8%; EOS, B (eosinophils in the group treated with the substance, with challenge) (late phase eosinophilia; 1 mg/kg i.p.): 2.9 ± 1.2 mill./animal; % inhibition (eosinophilia) (late phase eosinophilia; 30 mg/kg p.o.): 40.4%; EOS, B (eosinophils in the group treated with the substance, with challenge) (late phase eosinophilia; 30 mg/kg p.o.): 3.5 ± 1.7 mill./animal
COc1ccc2c(c1)c(O)nn2Cc1ccc(Cl)cc1Cl [Example 7, 1-(2,4-dichlorobenzyl)-5-methoxy-1H-indazole-3-ol] | 0.1 | –
COc1ccc2c(c1)c(O)nn2Cc1c(Cl)cccc1Cl [Example 8, 1-(2,6-dichlorobenzl)-5-methoxy-1H-indazole3-ol] | 0.75 | –
COc1ccc2c(c1)c(O)nn2Cc1cccc(Cl)c1F [Example 10, 1-(3-chloro-2-flurobenzyl)-5-methoxy-1H-indazole-3-ol] | 0.829 | –
COc1ccc2c(c1)c(O)nn2Cc1ccc(Br)cc1 [Example 11, 1-(4-bromobenzyl)-5-methoxy-1H-indazole-3-ol] | 0.765 | –
COc1ccc2c(c1)c(O)nn2Cc1ccc(C(C)(C)C)cc1 [Example 19, 1-(4-tert-butylbenzyl)-5-methoxy-1H-indazole-3-ol] | 0.696 | –
COc1ccc2c(c1)c(O)nn2Cc1ccc(-c2ccccc2)cc1 [Example 22, 1-biphenyl-4-ylmethyl-5-methoxy-1H-indazole-3-ol] | 0.257 | –
COc1ccc2c(c1)c(O)nn2Cc1ccc2ccccc2c1 [Example 23, 5-methoxy-1-naphthalen-2-ylmethyl-1H-indazole-3-ol] | 0.265 | –
COc1ccc2c(c1)c(O)nn2Cc1cccs1 [Example 24, 5-methoxy-1-thiophen-2-ylmethyl-1H-indazole-3-ol] | 0.5 | –
COc1ccc2c(c1)c(O)nn2Cc1cc2c(cc1Cl)OCO2 [Example 31] | 0.874 | –
COc1ccc2c(c1)c(O)nn2CC=Cc1ccccc1 [Example 36, 5-methoxy-1-(3-phenylallyl)-1H-indazole-3-ol] | 0.299 | –
COc1ccc2c(c1)c(O)nn2CCOc1ccccc1 [Example 37, 5-methoxy-1-(3-phenoxyethyl)-1H-indazole-3-ol] | 0.745 | –
COc1ccc2c(c1)c(O)nn2CCCOc1ccccc1 [Example 38, 5-methoxy-1-(3-phenoxypropyl)-1H-indazole-3-ol] | 0.655 | –
COc1ccc2c(c1)c(O)nn2CCC(=O)c1ccccc1 [Example 39, 3-(3-hydroxy-5-methoxyindazole-1-yl)phenyl-propan-1-one] | 0.15 | –
COc1ccc2c(c1)c(O)nn2CCCC(=O)c1ccc(F)cc1 [Example 42, 1-(4-fluorophenyl)-4-(3-hydroxy-5-methoxy-1H-indazole-1-yl)butan-1-one] | 0.679 | –
COc1ccc2c(c1)c(O)nn2Cc1ccc(OCc2ccc3ccccc3n2)cc1 [Example 49] | 0.086 | –
Oc1ccc2c(c1)c(O)nn2Cc1ccc(Cl)c(Cl)c1 [Example 51, 1-(3,4-dichlorobenzyl)-1H-indazole-3,5-diol] | 0.748 | –
Oc1ccc2c(c1)c(O)nn2Cc1ccc(Cl)cc1Cl [Example 52, 1-(2,4-dichlorobenzyl)-1H-indazole-3,5-diol] | 0.258 | –
O=C(Nc1ccc(Cl)c(Cl)c1)Nc1ccc2c(c1)c(O)nn2Cc1ccc(Cl)cc1 [Example 61, 1-[1-(4-chlorobenzyl)-3-hydroxy-1H-indazole-5-yl]-3-(3,4-dichlorophenyl)urea] | 0.278 | –
COc1ccc2c(c1)c(O)nn2Cc1ccc(OCc2ccccc2)cc1 [[no label printed]] | – | % drop in dyn. compliance ([3]; 5.0 mg/kg oral): 32 ± 13%; % inhibition ([3]; 5.0 mg/kg oral): 20%; % drop in dyn. compliance ([3]; 10.0 mg/kg oral): 9.3 ± 11%; % inhibition ([3]; 10.0 mg/kg oral): 77%
